In PMC7998731, “Pharmacokinetic Characterization of Supinoxin and Its Physiologically Based Pharmacokinetic Modeling in Rats” (Pharmaceutics, 2021):
pIC50: −log10 of the molar value.

Assays:
Assay type in all cases: in vitro ADME
[1] = Metabolic stability in rat liver microsomes
Protocol: In these experiments, the metabolic stability of supinoxin in rat liver microsomes (BD Biosciences, San Jose, CA, USA) was determined. The microsomal reaction mixture comprised the follows: liver microsomal protein (final concentration of 0.5 mg protein per mL reaction mixture) and an NADPH regenerating solution (1.3 mM NADP+, 3.3 mM glucose-6-phosphate, 0.4 U/mL glucose-6-phosphate dehydrogenase, and 3.3 mM MgCl2) in a 100 mM potassium phosphate buffer with a pH of 7.4. After 5 min preincubation of the reaction mixture in a water bath at 37 °C, the reaction was initiated by the addition of a supinoxin solution to obtain a final concentration of 1 µM. Aliquots (50 µL) of the mixture were sampled at 5, 15, 30, and 60 min after the initiation of the reaction. The reaction was terminated by adding a stop solution (200 µL of ice-chilled acetonitrile) to the sample immediately after collection. After mixing by vortexing and centrifugation of the mixtures at 15,000× g for 5 min, an aliquot (150 µL) of the supernatant was analyzed by LC–MS/MS assay. In addition, the metabolic stability of supinoxin was determined in the presence of UDP glucuronic acid under similar reaction conditions, except that uridine 5′-diphosphoglucuronic acid was added instead of the NADPH regenerating solution. Finally, metabolic stability of supinoxin was tested in concentration range of 0.1–10 μM to confirm that the concentration used in the study (1 μM) was below the Km for the metabolic reaction. The amount of sample remaining was plotted against the reaction time to determine the metabolic rate constant of the reaction. Assuming that the substrate concentration was below the Km for the metabolic reaction, the intrinsic clearance was calculated as follows:(6) CLint= Aprotein×ke/fu,mic·Cprotein where Aprotein is the total amount of liver microsomal protein, ke is the metabolic rate constant of the reaction, fu,mic is the unbound fraction of the drug in the reaction mixture, and Cprotein is the microsomal protein concentration (mg/mL) in the reaction mixture. In this calculation, an Aprotein of 1790 mg of protein per kg for rats was used.
When necessary, the hepatic clearance of the compound was calculated using a well-stirred model as follows: (7) CLh= Q·CLint·fu,p/Q+CLint·fu,p/R where Q is the hepatic blood flow, fu,p is the unbound fraction of the drug in the plasma, and R is the blood-to-plasma partition ratio. In this calculation, a hepatic blood flow of 14.5 mL/min for 250 g rat was used, and the blood-to-plasma partition ratio was assumed to be 1.

[2] = target: T1, CYP3A4 (Homo sapiens, UniProt P08684); experiment: CYP inhibition, Vivid CYP450 screening kit
T1 construct: purchased Thermo Fisher Scientific
T1 sequence (P08684 whole entry): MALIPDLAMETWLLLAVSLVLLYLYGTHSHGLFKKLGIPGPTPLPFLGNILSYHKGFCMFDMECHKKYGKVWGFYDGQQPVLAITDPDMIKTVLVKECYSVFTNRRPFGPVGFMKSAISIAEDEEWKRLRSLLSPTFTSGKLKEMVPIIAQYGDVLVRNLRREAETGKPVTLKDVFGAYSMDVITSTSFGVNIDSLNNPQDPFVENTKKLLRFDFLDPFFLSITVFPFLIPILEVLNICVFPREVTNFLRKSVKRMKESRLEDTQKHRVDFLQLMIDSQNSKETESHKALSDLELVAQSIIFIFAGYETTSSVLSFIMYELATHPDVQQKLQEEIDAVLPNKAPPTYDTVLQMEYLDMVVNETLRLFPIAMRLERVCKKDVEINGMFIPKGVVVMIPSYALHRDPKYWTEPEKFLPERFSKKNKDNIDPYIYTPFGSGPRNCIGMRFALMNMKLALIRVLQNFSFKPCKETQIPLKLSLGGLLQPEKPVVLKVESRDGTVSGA
Protocol: (§1) CYP inhibition by supinoxin was studied using Vivid® CYP450 screening kits (Thermo Fisher Scientific, San Jose, CA, USA) following the manufacturer’s instructions. Briefly, Vivid® substrates were dissolved in acetonitrile yielding a stock solution of 2 mM. Fluorescent assays were conducted at room temperature using Costar 96-well black plates (#3915; Corning Costar, Acton, MA, USA). Supinoxin stock solution was diluted in reaction buffer to yield a 2.5X concentration solution (final concentration of 10 µM); aliquots (40 μL) of the solution were added to the wells. Subsequently, aliquots (50 μL) of reaction mixture consisting of P450 Baculosomes® Reagent and the NADPH regeneration system were also added to the wells and preincubated for 10 min, at room temperature, after which 10 μL of 1 mM NADP^+ and Vivid® substrate mixture were added. After a 30-min incubation, fluorescence was detected in end-point mode using a Varioscan™ Flash multimode reader (Thermo Fisher Scientific, San Jose, CA, USA). Background fluorescence was obtained from wells not containing CYP isozymes and was withdrawn before further reaction. The excitation and emission wavelengths of 485 nm/530 nm for Vivid® Green substrates, and 409 nm/460 nm for Vivid® Blue substrates were used. The inhibition percentage of the compound was determined in comparison to the vehicle (i.e., DMSO)-treated control wells. For isozymes with > 50% inhibition at 10 μM, we determined the concentration-dependent inhibition of supinoxin to obtain the IC50 value at concentrations ranging from 0.59 to 10 μM.

[3] = target: T2, CYP2C9 (Homo sapiens, UniProt P11712); experiment: CYP inhibition, Vivid CYP450 screening kit
T2 construct: purchased Thermo Fisher Scientific
T2 sequence (P11712 whole entry): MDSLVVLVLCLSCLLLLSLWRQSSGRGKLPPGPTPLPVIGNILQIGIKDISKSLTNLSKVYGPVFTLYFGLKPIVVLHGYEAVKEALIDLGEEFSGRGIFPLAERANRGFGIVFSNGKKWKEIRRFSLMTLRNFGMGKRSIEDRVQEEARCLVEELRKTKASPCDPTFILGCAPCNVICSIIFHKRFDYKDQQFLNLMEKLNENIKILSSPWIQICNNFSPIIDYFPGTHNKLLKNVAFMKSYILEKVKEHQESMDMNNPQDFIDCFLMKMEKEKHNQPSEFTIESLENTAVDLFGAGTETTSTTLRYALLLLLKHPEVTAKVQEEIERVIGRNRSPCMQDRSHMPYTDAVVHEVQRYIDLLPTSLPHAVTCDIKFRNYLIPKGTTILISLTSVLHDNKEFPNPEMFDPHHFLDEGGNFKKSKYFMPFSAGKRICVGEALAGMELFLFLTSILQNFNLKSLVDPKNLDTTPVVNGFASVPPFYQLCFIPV
Protocol: as §1

[4] = target: T3, CYP1A2 (Homo sapiens, UniProt P05177); experiment: CYP inhibition, Vivid CYP450 screening kit
T3 construct: purchased Thermo Fisher Scientific
T3 sequence (P05177 1-516): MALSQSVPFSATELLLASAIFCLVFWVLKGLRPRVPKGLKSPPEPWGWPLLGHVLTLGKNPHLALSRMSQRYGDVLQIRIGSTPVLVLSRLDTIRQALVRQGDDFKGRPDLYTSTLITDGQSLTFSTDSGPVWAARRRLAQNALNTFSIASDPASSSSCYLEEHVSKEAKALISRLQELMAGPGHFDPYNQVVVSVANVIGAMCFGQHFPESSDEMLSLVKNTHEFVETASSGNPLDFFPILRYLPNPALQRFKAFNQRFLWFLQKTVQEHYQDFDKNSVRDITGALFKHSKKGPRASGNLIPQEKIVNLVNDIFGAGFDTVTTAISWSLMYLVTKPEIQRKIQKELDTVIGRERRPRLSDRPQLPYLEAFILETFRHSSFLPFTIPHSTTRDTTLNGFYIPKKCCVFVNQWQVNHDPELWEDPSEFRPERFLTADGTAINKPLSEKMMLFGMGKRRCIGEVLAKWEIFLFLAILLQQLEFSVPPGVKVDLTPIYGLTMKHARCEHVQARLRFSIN
Protocol: as §1

[5] = target: T4, CYP2D6 (Homo sapiens, UniProt P10635); experiment: CYP inhibition, Vivid CYP450 screening kit
T4 construct: purchased Thermo Fisher Scientific
T4 sequence (P10635 whole entry): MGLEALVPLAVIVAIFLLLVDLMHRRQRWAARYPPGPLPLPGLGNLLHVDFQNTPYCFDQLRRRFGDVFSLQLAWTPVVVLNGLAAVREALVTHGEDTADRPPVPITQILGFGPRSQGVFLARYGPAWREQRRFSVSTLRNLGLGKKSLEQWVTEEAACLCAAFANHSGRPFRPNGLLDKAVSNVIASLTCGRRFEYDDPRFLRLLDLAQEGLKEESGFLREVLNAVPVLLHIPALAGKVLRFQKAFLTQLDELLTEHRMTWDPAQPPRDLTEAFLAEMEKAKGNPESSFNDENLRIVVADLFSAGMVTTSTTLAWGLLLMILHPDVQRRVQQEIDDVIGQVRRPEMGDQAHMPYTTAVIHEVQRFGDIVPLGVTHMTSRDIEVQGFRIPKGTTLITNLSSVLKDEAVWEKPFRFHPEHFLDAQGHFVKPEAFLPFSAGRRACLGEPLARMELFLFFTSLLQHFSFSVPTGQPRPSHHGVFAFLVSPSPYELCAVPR
Protocol: as §1

half-life at 1 µM ([1]; pH 7.4, rat liver microsomes, NADPH, 1 µM, read-out: NADPH-dependent metabolic half-life): 17.1 min | CLint scaled at 1 µM ([1]; pH 7.4, rat liver microsomes, NADPH, 1 µM, read-out: intrinsic clearance (converted)): 233 mL/min/kg | remaining amount at the end of the 60-min incubation ([1]; rat liver microsomes, NADPH, 1 µM): 12.7 ± 0.1 % of the initial | remaining amount in UDPGA-dependent metabolic stability study ([1]; rat liver microsomes, UDPGA, 1 µM, 60 min): 92.2 ± 0.1% | half-life versus concentration ([1]; rat liver microsomes, concentration ranges of 0.1–1 μM): remained constant | hepatic clearance as share of the total in vivo clearance ([1]; vs average clearance of 0.5–5 mg/kg intravenous administration): 58.5% | hepatic clearance ([1]; well-stirred model, from rat liver microsomal incubation): 7.38 mL/min/kg | pIC50 ([2]; human recombinant CYP3A4, 0.59 to 10 μM): 5.33 | inhibition at 30 min, 10 µM ([2]; recombinant human CYP3A4 (P450 Baculosomes), probe Vivid substrate, human recombinant CYP3A4, 10 µM): > 50% | pIC50 ([3]; human recombinant CYP2C9): < 5.00 | inhibition at 30 min, 10 µM ([3]; recombinant human CYP2C9 (P450 Baculosomes), probe Vivid substrate, human recombinant CYP2C9, 10 µM, read-out: inhibition compared to the vehicle control): 16.2% | pIC50 ([4]; human recombinant CYP1A2): < 5.00 | inhibition at 30 min, 10 µM ([4]; recombinant human CYP1A2 (P450 Baculosomes), probe Vivid substrate, human recombinant CYP1A2, 10 µM, read-out: inhibition compared to the vehicle control): 5.9% | pIC50 ([5]; human recombinant CYP2D6): < 5.00 | inhibition at 30 min, 10 µM ([5]; recombinant human CYP2D6 (P450 Baculosomes), probe Vivid substrate, human recombinant CYP2D6, 10 µM, read-out: inhibition compared to the vehicle control): < 0.01%
SMILES: COc1cc(OC)cc(N2CCN(C(=O)Nc3nc4cc(F)ccc4nc3OC)CC2)c1 [supinoxin, 1-(3,5-Dimethoxyphenyl)-4-[(6-Fluoro-2-Methoxyquinoxalin-3-yl) Aminocarbonyl] Piperazine]
